Measurements from publication PMC11396129, “Oxindole–benzothiazole hybrids as CDK2 inhibitors and anticancer agents: design, synthesis and biological evaluation” (BMC Chemistry, 2024).

Columns and labels:
[1] = tested on: CCRF-CEM; experiment: NCI 60 panel growth inhibition (SRB), leukemia; format: cell-based, human; details: for GI%: 10 μM
Outline: (§1)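 Selected compounds progressed from a single-dose mean-graph screen to five-concentration testing. Percentage growth, with negative values indicating cell kill below Tz, was computed per level, giving TGI among three parameters.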

[2] = tested on: HL-60(TB); experiment: NCI 60 panel growth inhibition (SRB), leukemia; format: cell-based, human; details: for GI%: HL-60(TB), 10 μM
Outline: as §1

[3] = tested on: RPMI-8226; experiment: NCI 60 panel growth inhibition (SRB), leukemia; format: cell-based, human; details: for GI%: RPMI-8226, 10 μM
Outline: as §1

[4] = tested on: A549/ATCC; experiment: NCI 60 panel growth inhibition (SRB), non-small cell lung cancer; format: cell-based, human; details: for GI%: 10 μM
Outline: as §1

[5] = tested on: EKVX; experiment: as above; format: cell-based, human; details: for GI%: 10 μM
Outline: as §1

[6] = tested on: HOP-62; experiment: as above; format: cell-based, human; details: for GI%: HOP-62, 10 μM
Outline: as §1

[7] = tested on: HOP-92; experiment: as above; format: cell-based, human; details: for GI%: HOP-92, 10 μM
Outline: as §1

[8] = tested on: NCI-H226; experiment: as above; format: cell-based, human; details: for GI%: NCI-H226, 10 μM
Outline: as §1

[9] = tested on: NCI-H23; experiment: as above; format: cell-based, human; details: for GI%: NCI-H23, 10 μM
Outline: as §1

[10] = tested on: NCI-H322M; experiment: as above; format: cell-based, human; details: for GI%: 10 μM
Outline: as §1

[11] = tested on: NCI-H460; experiment: as above; format: cell-based, human; details: for GI%: NCI-H460, 10 μM
Outline: as §1

[12] = tested on: NCI-H522; experiment: as above; format: cell-based, human; details: for GI%: NCI-H522, 10 μM
Outline: as §1

[13] = tested on: IGROV1; experiment: NCI 60 panel growth inhibition (SRB), ovarian cancer; format: cell-based, human; details: for GI%: IGROV1, 10 μM
Outline: as §1

[14] = tested on: NCI/ADR-RES; experiment: as above; format: cell-based, human; details: for GI%: 10 μM
Outline: as §1

[15] = tested on: OVCAR-3; experiment: as above; format: cell-based, human; details: for GI%: OVCAR-3, 10 μM
Outline: as §1

[16] = tested on: OVCAR-4; experiment: as above; format: cell-based, human; details: for GI%: OVCAR-4, 10 μM
Outline: as §1

[17] = tested on: OVCAR-5; experiment: as above; format: cell-based, human; details: for GI%: OVCAR-5, 10 μM
Outline: as §1

[18] = tested on: OVCAR-8; experiment: as above; format: cell-based, human; details: for GI%: OVCAR-8, 10 μM
Outline: as §1

[19] = tested on: SK-OV-3; experiment: as above; format: cell-based, human; details: for GI%: SK-OV-3, 10 μM
Outline: as §1

[20] = tested on: 786-0; experiment: NCI 60 panel growth inhibition (SRB), renal cancer; format: cell-based, human; details: for GI%: 786-0, 10 μM
Outline: as §1

[21] = tested on: A498; experiment: NCI 60 panel growth inhibition (SRB), renal cancer; format: cell-based, human; details: for GI%: A498, 10 μM
Outline: as §1

[22] = tested on: ACHN; experiment: NCI 60 panel growth inhibition (SRB), renal cancer; format: cell-based, human; details: for GI%: 10 μM
Outline: as §1

[23] = tested on: CAKI-1; experiment: NCI 60 panel growth inhibition (SRB), renal cancer; format: cell-based, human; details: for GI%: CAKI-1, 10 μM
Outline: as §1

[24] = tested on: RXF 393; experiment: NCI 60 panel growth inhibition (SRB), renal cancer; format: cell-based, human; details: for GI%: RXF 393, 10 μM
Outline: as §1

[25] = tested on: SN12C; experiment: NCI 60 panel growth inhibition (SRB), renal cancer; format: cell-based, human; details: for GI%: 10 μM
Outline: as §1

[26] = tested on: TK-10; experiment: NCI 60 panel growth inhibition (SRB), renal cancer; format: cell-based, human; details: for GI%: TK-10, 10 μM
Outline: as §1

[27] = tested on: UO-31; experiment: NCI 60 panel growth inhibition (SRB), renal cancer; format: cell-based, human; details: for GI%: UO-31, 10 μM
Outline: as §1

[28] = tested on: BT-549; experiment: NCI 60 panel growth inhibition (SRB), breast cancer; format: cell-based, human; details: for GI%: BT-549, 10 μM
Outline: as §1

[29] = tested on: HS 578T; experiment: as above; format: cell-based, human; details: for GI%: 10 μM
Outline: as §1

[30] = tested on: MCF7; experiment: as above; format: cell-based, human; details: for GI%: MCF7, 10 μM
Outline: as §1

[31] = tested on: MDA-MB-231/ATCC; experiment: as above; format: cell-based, human; details: for GI%: 10 μM
Outline: as §1

[32] = tested on: MDA-MB-468; experiment: as above; format: cell-based, human; details: for GI%: MDA-MB-468, 10 μM
Outline: as §1

[33] = tested on: T-47D; experiment: as above; format: cell-based, human; details: for GI%: 10 μM
Outline: as §1

[34] = tested on: NCI 60 cancer cell line panel; experiment: NCI 60 panel growth inhibition (SRB), whole panel; format: cell-based, human; details: for Mean GI%: mean over NCI 60 panel, 10 μM
Outline: as §1

Cc1ccc2c(c1)C(=NNC(=O)COc1ccccc1-c1nc3ccccc3s1)C(=O)N2 [Compound 9b, 2-(2-(Benzo[d]thiazol-2-yl)phenoxy)-N′-(5-methyl-2-oxoindolin-3-ylidene)acetohydrazide]
GI% [1]: 23.64%
GI% [2]: 8.38%
GI% [3]: 30.53%
GI% [4]: 28.01%
GI% [5]: 24.46%
GI% [6]: 51.18%
GI% [7]: 35.86%
GI% [8]: 105.34%
GI% [9]: 85.13%
GI% [10]: 19.44%
GI% [11]: 34.24%
GI% [12]: 37.21%
GI% [13]: 35.91%
GI% [14]: 71.87%
GI% [15]: 79.13%
GI% [16]: 99.49%
GI% [17]: 7.29%
GI% [18]: 57.37%
GI% [19]: 15.84%
GI% [20]: 57.65%
GI% [21]: 5.48%
GI% [22]: 52.92%
GI% [23]: 41.90%
GI% [24]: 134.59%
GI% [25]: 61.93%
GI% [26]: 93.55%
GI% [27]: 27.53%
GI% [28]: 50.79%
GI% [29]: 58.35%
GI% [30]: 64.25%
GI% [31]: 63.76%
GI% [32]: 90.93%
GI% [33]: 48.54%
Mean GI% [34]: 44.28%
melting point: 251 to 253 °C

COc1ccc2c(c1)C(=NNC(=O)COc1ccccc1-c1nc3ccccc3s1)C(=O)N2 [Compound 9c, 2-(2-(Benzo[d]thiazol-2-yl)phenoxy)-N′-(5-methoxy-2-oxoindolin-3-ylidene)acetohydrazide]
GI% [1]: 60.17%
GI% [2]: 15.59%
GI% [3]: 48.87%
GI% [4]: 25.86%
GI% [5]: 25.93%
GI% [6]: – (GI% < 5%)
GI% [7]: – (GI% < 5%)
GI% [8]: 23.90%
GI% [9]: 17.94%
GI% [10]: – (GI% < 5%)
GI% [11]: 6.01%
GI% [12]: – (GI% < 5%)
GI% [13]: – (GI% < 5%)
GI% [14]: 25.58%
GI% [15]: – (GI% < 5%)
GI% [16]: 32.22%
GI% [17]: – (GI% < 5%)
GI% [18]: 19.15%
GI% [19]: – (GI% < 5%)
GI% [20]: 5.40%
GI% [21]: – (GI% < 5%)
GI% [22]: 9.04%
GI% [23]: 28.09%
GI% [24]: 23.06%
GI% [25]: 12.43%
GI% [26]: – (GI% < 5%)
GI% [27]: 35.66%
GI% [28]: 18.71%
GI% [29]: – (GI% < 5%)
GI% [30]: 18.66%
GI% [31]: – (GI% < 5%)
GI% [32]: 29.51%
GI% [33]: 36.38%
Mean GI% [34]: 12.24%
melting point: 240 to 242 °C

COc1ccc2c(c1)C(=NNC(=O)COc1cc(-c3nc4ccccc4s3)ccc1OC)C(=O)N2 [Compound 9o, 2-(5-(Benzo[d]thiazol-2-yl)-2-methoxyphenoxy)-N′-(5-methoxy-2-oxoindolin-3-ylidene)acetohydrazide]
GI% [1]: 57.64%
GI50 ([1]; Homo sapiens, five dose): 6.08 µM
GI% [2]: 7.99%
GI50 ([2]; Homo sapiens, HL-60 (TB), five dose): > 100 µM
GI50 ([3]; Homo sapiens, RPMI-8226, five dose): 61.4 µM
GI% [3]: 66.93%
GI% [4]: 39.87%
GI50 ([4]; Homo sapiens, five dose): 30.9 µM
GI% [5]: 55.62%
GI50 ([5]; Homo sapiens, five dose): 20 µM
GI50 ([6]; Homo sapiens, HOP-62, five dose): 7.84 µM
GI% [7]: 15.22%
GI50 ([7]; Homo sapiens, HOP-92, five dose): 51.9 µM
GI50 ([8]; Homo sapiens, NCI-H226, five dose): 21.3 µM
GI% [8]: 5.08%
GI50 ([9]; Homo sapiens, NCI-H23, five dose): 3.03 µM
GI% [9]: 84.74%
GI% [10]: 9.70%
GI50 ([10]; Homo sapiens, five dose): > 100 µM
GI50 ([11]; Homo sapiens, NCI-H460, five dose): 9.26 µM
GI% [11]: 106.89%
GI50 ([12]; Homo sapiens, NCI-H522, five dose): 48 µM
GI% [12]: 5.70%
GI50 ([13]; Homo sapiens, IGROV-1, IGROV1, five dose): 2.22 µM
GI% [13]: 18.68%
GI% [14]: 130.36%
GI50 ([14]; Homo sapiens, five dose): 18.5 µM
GI50 ([15]; Homo sapiens, OVCAR-3, five dose): 2.49 µM
GI% [15]: 94.12%
GI50 ([16]; Homo sapiens, OVCAR-4, five dose): > 100 µM
GI% [16]: 68.35%
GI50 ([17]; Homo sapiens, OVCAR-5, five dose): > 100 µM
GI% [17]: 9.28%
GI50 ([18]; Homo sapiens, OVCAR-8, five dose): 4.02 µM
GI% [18]: 93.38%
GI50 ([19]; Homo sapiens, SK-OV-3, five dose): 48.9 µM
GI% [20]: 75.63%
GI50 ([20]; Homo sapiens, 786-0, five dose): 16.1 µM
GI% [21]: – (GI% < 5%)
GI50 ([21]; Homo sapiens, A498, five dose): > 100 µM
GI% [22]: 96.99%
GI50 ([22]; Homo sapiens, five dose): 6.7 µM
GI% [23]: 72.22%
GI50 ([23]; Homo sapiens, CAKI-1, five dose): 56.2 µM
GI50 ([24]; Homo sapiens, RXF 393, five dose): 5.06 µM
GI% [24]: 129.01%
GI% [25]: 24.01%
GI50 ([25]; Homo sapiens, five dose): 25.6 µM
GI50 ([26]; Homo sapiens, TK-10, five dose): 71.7 µM
GI% [26]: 86.88%
GI50 ([27]; Homo sapiens, UO-31, five dose): 2.03 µM
GI% [27]: 44.24%
GI% [28]: 33.89%
GI50 ([28]; Homo sapiens, BT-549, five dose): 17.6 µM
GI% [29]: 34.64%
GI50 ([29]; Homo sapiens, five dose): 24.8 µM
GI50 ([30]; Homo sapiens, MCF7, five dose): 3.44 µM
GI% [30]: 82.77%
GI% [31]: 75.41%
GI50 ([31]; Homo sapiens, five dose): 5.44 µM
GI50 ([32]; Homo sapiens, MDA-MB-468, five dose): 3.72 µM
GI% [32]: 60.54%
GI50 ([33]; Homo sapiens, T47D, five dose): 41 µM
GI50 ([34]; Homo sapiens, five dose, NCI cancer cell lines, read-out: GI50 reached (most sensitive NCI cell line)): 2.02 µM
Mean GI% [34]: 55.91%
melting point: 199 to 201 °C

COc1ccc2c(c1)C(=NNC(=O)COc1c(OC)cccc1-c1nc3ccccc3s1)C(=O)N2 [Compound 9i, 2-(2-(Benzo[d]thiazol-2-yl)-6-methoxyphenoxy)-N′-(5-methoxy-2-oxoindolin-3-ylidene)acetohydrazide]
GI% [1]: 44.24%
GI% [2]: – (GI% < 5%)
GI% [3]: 47.68%
GI% [4]: 18.26%
GI% [5]: 24.10%
GI% [6]: – (GI% < 5%)
GI% [7]: 31.66%
GI% [8]: 29.04%
GI% [9]: 11.65%
GI% [10]: 5.89%
GI% [11]: – (GI% < 5%)
GI% [12]: 7.04%
GI% [13]: – (GI% < 5%)
GI% [14]: 10.58%
GI% [15]: – (GI% < 5%)
GI% [16]: 20.14%
GI% [17]: – (GI% < 5%)
GI% [18]: 11.59%
GI% [19]: 9.98%
GI% [20]: 5.62%
GI% [21]: – (GI% < 5%)
GI% [22]: 6.51%
GI% [23]: 24.98%
GI% [24]: 15.41%
GI% [25]: 14.66%
GI% [26]: – (GI% < 5%)
GI% [27]: 30.29%
GI% [28]: 16.10%
GI% [29]: – (GI% < 5%)
GI% [30]: 23.12%
GI% [31]: 10.30%
GI% [32]: 30.66%
GI% [33]: 37.57%
Mean GI% [34]: 6.32%
melting point: 144 to 146 °C
